PubChem BioAssay (NCI)
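Assay format: 96-well plates, 48-hour exposure. GI50 = concentration required for 50% inhibition of growth. TGI is the concentration that stops growth completely.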

Experiments:
Test in all cases: NCI tumour cell line growth inhibition, 48 h
[1] = test system: DMS 114 small cell lung
[2] = test system: HOP-18 NSCLC
[3] = test system: XF 498 CNS
[4] = test system: KM20L2 colon
[5] = test system: DMS 273 small cell lung
[6] = test system: RXF-631 renal
[7] = test system: MDA-N
[8] = test system: LXFL 529 NSCLC
[9] = test system: SNB-78 CNS
[10] = test system: P388 leukemia
[11] = test system: SN12K1 renal
[12] = test system: P388/ADR leukemia

CCOC(=O)c1cc(/C=C/C(C)=C/C(=O)OC)oc1-c1ccccc1
TGI [1]: > 100 µM
TGI [2]: > 100 µM
TGI [3]: > 100 µM
TGI [4]: > 100 µM
TGI [5]: > 100 µM

Cc1nc2ccccc2c(=O)n1/N=C(\N=Nc1cc(Cl)ccc1Cl)c1cccc(-c2ccco2)c1
TGI [1]: > 100 µM
TGI [6]: > 100 µM
TGI [2]: > 100 µM
TGI [5]: > 100 µM

NC1=NC(c2ccc(Cl)cc2)N(c2ccc(S(=O)(=O)Nc3ncccn3)cc2)C(N)=N1 (stereo unspecified)
TGI [7]: > 100 µM

Cc1ccc(C2CC(c3ccc([N+](=O)[O-])cc3)=Nc3ccccc3S2)cc1 (stereo unspecified)
TGI [1]: 59 µM
TGI [8]: 37.5 µM
TGI [6]: > 100 µM
TGI [2]: > 100 µM
TGI [3]: 55.7 µM
TGI [4]: 96.7 µM

O=c1oc2cc(N=Cc3ccccc3Cl)ccc2c2ccccc12
TGI [7]: > 100 µM

N=Nc1c(OC(=O)Nc2ccccc2)[nH]c2ccccc12
TGI [7]: 61.8 µM

O=C(CC(=O)c1ccc([N+](=O)[O-])cc1)C(=O)Nc1nccs1
TGI [1]: > 100 µM
TGI [8]: > 100 µM
TGI [6]: > 100 µM
TGI [2]: > 100 µM
TGI [3]: > 100 µM
TGI [4]: > 100 µM
TGI [5]: > 100 µM
TGI [9]: > 100 µM

CC(=O)Nc1ccc(-c2c3nc(c(-c4cc5ccccc5[n+](C)c4)c4ccc([nH]4)c(-c4ccc(NC(C)=O)cc4)c4nc(c(-c5cc6ccccc6[n+](C)c5)c5ccc2[nH]5)C=C4)C=C3)cc1
GI50 [7]: 11.2 µM
TGI [7]: 36.7 µM

O=S1CSCS1 (stereo unspecified)
TGI [1]: > 100 µM
TGI [8]: > 100 µM
TGI [6]: > 100 µM
TGI [2]: > 100 µM
TGI [3]: > 100 µM
TGI [4]: > 100 µM
TGI [5]: > 100 µM
TGI [9]: > 100 µM

COC1C(O)C(C)OC(OC2C(Oc3cccc4c(O)c5c(=O)oc6ccc(C)c7c(=O)oc(c34)c5c67)OC(C)C3O[C@H](c4ccccc4)OC32)C1O (stereo partly specified)
TGI [1]: 2.69 µM
TGI [8]: 3.18 µM
TGI [6]: 2.37 µM
TGI [2]: 13.6 µM
GI50 [7]: 0.327 µM
TGI [7]: 10.4 µM
TGI [3]: 2.21 µM
TGI [4]: 2.98 µM
TGI [5]: 1.59 µM
TGI [9]: 4.73 µM

O=C(CCN1CCOCC1)Nc1ccc(F)cc1F
TGI [7]: > 100 µM

O=C(c1ccccc1)C(c1ccccc1)C1(O)C(=O)Nc2ccccc21 (stereo unspecified)
TGI [1]: > 100 µM
TGI [8]: > 100 µM
TGI [6]: > 100 µM
TGI [3]: > 100 µM
TGI [4]: > 100 µM
TGI [5]: > 100 µM
TGI [9]: > 100 µM

CC1(C)C(c2ccccc2)C12CCC1(C2=O)C(c2ccccc2)C1(C)C (stereo unspecified)
TGI [1]: 34.9 µM
TGI [8]: > 100 µM
TGI [3]: 36.1 µM
TGI [4]: 52.9 µM
TGI [5]: 45.3 µM
TGI [9]: 62.4 µM

O=C(O)C1CCc2nnc(-c3ccccc3)n21 (stereo unspecified)
TGI [1]: > 100 µM
TGI [8]: > 100 µM
TGI [6]: > 100 µM
TGI [2]: > 100 µM
TGI [4]: > 100 µM
TGI [5]: > 100 µM
TGI [9]: > 100 µM

C/C=C(\C)c1cc(=O)c2c(C)cc3c(c2o1)C(=O)c1c(O)c(C2CC(C)(N(C)C)C(O)C(C)O2)cc(C2CC(N(C)C)C(O)C(C)O2)c1C3=O (stereo unspecified)
TGI [1]: 4.45 µM
TGI [2]: > 100 µM
TGI [7]: 0.46 µM
TGI [10]: 5.36 µM
TGI [11]: 2.52 µM
TGI [4]: 25 µM
TGI [12]: 67.9 µM
TGI [5]: 11.4 µM
TGI [9]: 50.6 µM

Cc1cc(=O)oc2c(CN3CCCCC3)c(O)ccc12
TGI [7]: > 100 µM

O=C1c2ccccc2C(=O)C2C1C1C(=O)c3ccccc3C(=O)C21 (stereo unspecified)
TGI [1]: > 100 µM
TGI [8]: > 100 µM
TGI [6]: > 100 µM
TGI [2]: > 100 µM
TGI [4]: > 100 µM
TGI [5]: > 100 µM

COc1c(C2=NC(C(C)C)CO2)ccc2ccccc12 (stereo unspecified)
TGI [8]: > 100 µM
TGI [6]: > 100 µM
TGI [3]: > 100 µM
TGI [4]: > 100 µM
TGI [5]: > 100 µM
TGI [9]: > 100 µM

NC(C/[N+]([O-])=N/O)C(=O)O (stereo unspecified)
TGI [1]: 10.9 µM
TGI [2]: > 472 µM
TGI [7]: > 500 µM
TGI [10]: 337 µM
TGI [3]: 40.1 µM
TGI [11]: 257 µM
TGI [4]: > 500 µM
TGI [12]: 336 µM
TGI [5]: 50.4 µM
TGI [9]: > 500 µM

Cc1cc(=O)n(-c2ccccc2)c(=O)o1
TGI [1]: > 100 µM
TGI [8]: > 100 µM
TGI [2]: > 100 µM
TGI [4]: > 100 µM
TGI [5]: > 100 µM
TGI [9]: > 100 µM

CCCN(CCCN)/[N+]([O-])=N\O
TGI [1]: > 100 µM
TGI [8]: > 100 µM
TGI [6]: > 100 µM
TGI [2]: > 100 µM
TGI [4]: 2.74 µM
TGI [5]: > 100 µM
TGI [9]: > 100 µM

N=CCCN(CCC=N)c1ccc(/C=C2\CN(NC(=O)c3ccc(Cl)cc3)C(c3ccccc3)=N2)cc1
TGI [1]: > 100 µM
TGI [8]: > 100 µM
TGI [6]: > 100 µM
TGI [2]: > 100 µM
TGI [4]: > 100 µM
TGI [5]: > 100 µM
TGI [9]: > 100 µM

NC(N)=NS(=O)(=O)c1ccc(Nc2c3ccccc3nc3c(C(=O)N4CCN(CCO)CC4)cccc23)cc1
TGI [1]: > 100 µM
TGI [8]: > 100 µM
TGI [2]: > 100 µM
TGI [3]: > 100 µM
TGI [4]: > 100 µM
TGI [5]: > 100 µM
TGI [9]: > 100 µM
